The subject of one experiment is mice. The experiment can be described thus: Dark Avoidance Assay (reversal of scopolamine induced memory deficit). Type of experiment: in vivo. To be noted: retested 24 hours later. The method, then: This utility can also be ascertained by determining the ability of these compounds to restore cholinergically deficient memory in the Dark Avoidance Assay. In this assay mice are tested for their ability to remember an unpleasant stimulus for a period of 24 hours. A mouse is placed in a chamber that contains a dark compartment; a strong incadescent light drives it to the dark compartment, where an electric shock is administered through metal plates on the floor. The animal is removed from the testing apparatus and tested again, 24 hours later, for the ability to remember the electric shock.
If scopolamine, an anticholinergic that is known to cause memory impairment, is administered before an animal's initial exposure to the test chamber, the animal re-enters the dark compartment shortly after being placed in the test chamber 24 hours later. This effect of scopolamine is blocked by an active test compound, resulting in a greater interval before re-entry into the dark compartment.
The results for an active compound are expressed as the percent of a group of animals in which the effect of scopolamine is blocked, as manifested by an increased interval between being placed in the test chamber and re-entering the dark compartment.

The next experiment has as its target acetylcholinesterase (Homo sapiens, UniProt P22303). The experiment can be described thus: Cholinesterase Inhibition Assay (photometric method of Ellman et al.). Type of experiment: biochemical. In general terms: DTNB colorimetry detects thiols as they appear.

From patent publication US4868177A, “1,2,3,4-tetrahydro-1,9-acridinediamines, pharmaceutical compositions and use” (priority 1988, dated 1989) come the findings set out here.

Structures are written as SMILES. Where a name gives a salt, the structure may show the parent alone.

Chain of acetylcholinesterase (P22303 32-614): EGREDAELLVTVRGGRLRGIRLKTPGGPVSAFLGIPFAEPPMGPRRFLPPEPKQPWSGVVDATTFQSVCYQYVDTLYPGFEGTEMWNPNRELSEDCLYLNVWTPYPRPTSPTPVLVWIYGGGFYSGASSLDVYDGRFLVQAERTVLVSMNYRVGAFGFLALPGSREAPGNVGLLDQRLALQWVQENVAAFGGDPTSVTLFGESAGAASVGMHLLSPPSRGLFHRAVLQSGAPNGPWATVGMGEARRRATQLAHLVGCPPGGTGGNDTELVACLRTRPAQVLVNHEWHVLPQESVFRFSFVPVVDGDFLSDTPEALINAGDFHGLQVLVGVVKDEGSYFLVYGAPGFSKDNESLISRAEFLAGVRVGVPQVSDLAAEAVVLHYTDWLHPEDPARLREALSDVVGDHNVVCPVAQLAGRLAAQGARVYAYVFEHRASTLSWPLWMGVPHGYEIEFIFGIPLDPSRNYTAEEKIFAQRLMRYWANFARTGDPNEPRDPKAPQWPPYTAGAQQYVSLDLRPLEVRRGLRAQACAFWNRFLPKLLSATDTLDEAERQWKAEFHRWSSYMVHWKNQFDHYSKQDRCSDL

For the compound `Nc1c2c(nc3ccccc13)CCCC2N1CCCCC1` (stereo not drawn) [1-(1-Piperidinyl)-1,2,3,4-tetrahydro-9-acridinamine], in the experiment on mice (0.16 mg/kg body weight), the “% of animals with scopolamine induced memory deficit reversal” value (from here on “% of animals”) stood at 13%. It took 8.4 µM to reach half-maximal inhibition on acetylcholinesterase (IC50).

`Nc1c2c(nc3ccccc13)CCCC2N1CCCC1` (stereo not drawn) [1-(1-Pyrrolidinyl)-1,2,3,4-tetrahydro-9-acridinamine] returned an IC50 against acetylcholinesterase of 18 µM.

For the compound `CN1CCN(C2CCCc3nc4ccccc4c(N)c32)CC1` (stereo not drawn) [1-(4-Methyl-1-piperazinyl)-1,2,3,4-tetrahydro-9-acridinamine], at acetylcholinesterase, the IC50 was more than 1000 µM.

With `Nc1c2c(nc3ccccc13)CCCC2N1CCOCC1` (stereo not drawn) [1-(4-Morpholinyl)-1,2,3,4-tetrahydro-9-acridinamine], the IC50 on acetylcholinesterase is more than 1000 µM.

`Nc1c2c(nc3ccccc13)CCCC2N1CCN(c2ccccc2)CC1` (stereo not drawn) [1-(4-Phenyl-1-piperazinyl)-1,2,3,4-tetrahydro-9-acridinamine, maleate] registered a half-maximal inhibitory concentration (IC50) against acetylcholinesterase of more than 1000 µM.

As for `[N-]=[N+]=NC1CCCc2nc3ccccc3c(N)c21` (stereo not drawn) [1-Azido-1,2,3,4-tetrahydro-9-acridinamine, maleate], on acetylcholinesterase, 12 µM corresponded to half-maximal inhibition (IC50).

On to `Nc1c2c(nc3ccccc13)CCCC2NCc1ccccc1` (stereo not drawn) [N1 -Benzyl-1,2,3,4-tetrahydro-1,9-acridinediamine], for which the IC50 against acetylcholinesterase came to 20 µM.

As to `CCCCNC1CCCc2nc3ccccc3c(N)c21` (stereo not drawn) [N1 -Butyl-1,2,3,4-tetrahydro-1,9-acridinediamine], the IC50 at acetylcholinesterase amounted to 49 µM.

Turning to `CCNC1CCCc2nc3ccccc3c(N)c21` (stereo not drawn) [N1 -Ethyl-1,2,3,4-tetrahydrol, 9-acridinediamine, fumarate, hemi-hydrate], the IC50 against acetylcholinesterase is 4.8 µM.

In the case of `CCCNC1CCCc2nc3ccccc3c(N)c21` (stereo not drawn) [N1 -Propyl-1,2,3,4-tetrahydro-1,9-acridinediamine], in the experiment on mice (0.31 mg/kg body weight), the “% of animals” value amounted to 20%. The compound further gave an IC50 against acetylcholinesterase of 13 µM.

`Nc1c2c(nc3ccccc13)CCCC2NCCc1ccccc1` (stereo not drawn) [N1-(2-Phenylethyl)-1,2,3,4-tetrahydro-1,9-acridinediamine] yielded an IC50 against acetylcholinesterase of 19 µM.

With `COc1ccc(CNC2CCCc3nc4ccccc4c(N)c32)cc1OC` (stereo not drawn) [N1-(3,4-Dimethoxybenzyl)-1,2,3,4-tetrahydro-1,9-acridinediamine], the IC50 on acetylcholinesterase stood at 39 µM.

Turning to `CNC(=O)Oc1ccc2c(c1)[C@]1(C)CCN(C)[C@@H]1N2C` [Physostigmine, reference compound], in the experiment with mice (0.31 mg/kg body weight), the “% of animals” value is 20%.

By IC50 is commonly meant the midpoint of a concentration-inhibition curve. Higher therefore signals a need for much substance.
